Measured values from patent publication US12600732B2, “Bifunctional compounds for degrading BTK via ubiquitin proteosome pathway” (NURIX THERAPEUTICS, INC., priority 2019, dated 2026).
pEC50: −log10 of the molar value. Blank lines part the entries; values can stand above or below the molecule they belong to.

Tests used:
[1] = tested on: TMD8 cells; experiment: Cell viability assay (CellTiter-Glo), TMD8 cells
[2] = tested on: TMD8 C481S cells; experiment: Cell viability assay (CellTiter-Glo), TMD8 C481S cells; conditions: for pEC50: Homo sapiens, TMD8, 72 h; for EMAX (% viable cells): TMD8 C481S cells, treatment time 72 h
[3] = target: T1, BTK (Mus musculus, UniProt P35991); experiment: In vivo degradation of BTK in mouse PD experiments with oral dosing
T1 construct: from tissue; host or cells: mouse blood B cells / splenocytes (CD-1 or BALB/c)
T1 sequence (P35991 whole entry): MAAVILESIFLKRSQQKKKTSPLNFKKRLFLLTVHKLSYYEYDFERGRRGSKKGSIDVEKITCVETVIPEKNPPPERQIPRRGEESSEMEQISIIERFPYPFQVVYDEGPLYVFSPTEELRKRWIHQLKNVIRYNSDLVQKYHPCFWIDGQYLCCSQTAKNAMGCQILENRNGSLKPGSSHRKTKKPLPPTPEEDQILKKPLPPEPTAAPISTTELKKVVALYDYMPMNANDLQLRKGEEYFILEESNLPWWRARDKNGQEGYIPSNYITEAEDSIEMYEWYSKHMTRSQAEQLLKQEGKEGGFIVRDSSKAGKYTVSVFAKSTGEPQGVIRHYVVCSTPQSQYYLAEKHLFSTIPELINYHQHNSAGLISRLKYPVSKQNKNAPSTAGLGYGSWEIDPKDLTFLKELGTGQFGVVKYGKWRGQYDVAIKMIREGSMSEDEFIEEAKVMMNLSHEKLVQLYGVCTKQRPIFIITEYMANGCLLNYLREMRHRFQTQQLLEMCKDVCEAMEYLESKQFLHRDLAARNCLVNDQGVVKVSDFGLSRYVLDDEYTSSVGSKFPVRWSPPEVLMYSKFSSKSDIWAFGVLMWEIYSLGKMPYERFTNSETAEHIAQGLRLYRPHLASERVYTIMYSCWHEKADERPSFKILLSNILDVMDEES
Protocol: A method of determining the pharmacodynamic profile of BTK degraders was performed by dosing either CD-1 or BALB/c mice with CTM. The CTM was prepared in a suitable formulation and was administered via oral gavage (PO) at a suitable dose level and frequency as informed by prior pharmacokinetic and tolerability studies. Following administration of CTM, BTK levels in blood or splenocytes are measured using flow cytometry or HTRF. For assessment of BTK levels via flow cytometry, either whole blood or splenocytes were first treated with ACK RBC lysis buffer to facilitate lysing of red blood cells. Remaining cells were then stained with fluorophore-conjugated antibodies against CD45, TCR beta and CD45R (B220). Cell pellets were washed with 1×PBS, fixed, and permeabilized for twenty-four hours with Foxp3/Transcription Factor Fixation/Permeabilization Kit. Cells were then stained intracellularly with unconjugated BTK antibody and detected with a fluorophore-conjugated secondary antibody. Stained cells were run on an Attune N×T Acoustic Focusing Flow Cytometer (Thermo-Fisher A29004), and data was analyzed using FlowJo (v10.5.3) and GraphPad Prism (v7.00) software. Lymphocytes were gated for B cells defined as CD45+ TCR beta−B220+ and T cells as CD45+ TCR beta+B220−. The BTK geometric mean fluorescence intensity (MFI) was calculated for B and T cells. Percent BTK degradation for each compound-treated sample was calculated using the equation described below: % Degradation=100*(Treated sample B cell BTK MFI-treated sample T cell BTK MFI)/Vehicle B cell BTK MFI-Vehicle T cell BTK MFI)
This example evaluates in vivo activity of BTK CTMs via a direct mouse PD measurement following oral dosing
Screens were completed at 90 mg/kg for six hours, and then changed to lower doses/longer time points after seeing strong BTK degradation activity with an initial set of compounds. This assay was useful in selecting compounds for in vivo efficacy experiments.

[4] = oral dose 30 mg/kg, 24 h, splenocytes, HTRF
[5] = oral dose 1 mg/kg, 6 h, splenocytes, HTRF
[6] = oral dose 30 mg/kg, 24 h, blood, flow cytometry
[7] = oral dose 90 mg/kg, 6 h, splenocytes, HTRF

SMILES: CN1CCN([C@@H]2CCCN(c3cnc(C(N)=O)c(Nc4ccc(N5CCC6(CCN(Cc7ccc8c(c7)CN([C@@H]7CCC(=O)NC7=O)C8=O)CC6)CC5)cc4)n3)C2)C1=O [Compound 210]
pEC50 ([1]; Homo sapiens, TMD8, 72 h): 8.25 | EMAX (% viable cells) ([1]; TMD8 cells, treatment time 72 h): 32% | pEC50 [2]: 8.28 | EMAX (% viable cells) [2]: 40%

SMILES: CN1CCN([C@@H]2CCCN(c3cnc(C(N)=O)c(Nc4ccc(N5CC6CN(Cc7ccc8c(c7)C(=O)N(C7CCC(=O)NC7=O)C8=O)CC6C5)cc4)n3)C2)C1=O (stereo partly shown) [Compound 76]
% BTK Remaining [3, 5]: 100%

SMILES: CN1CCN([C@@H]2CCCN(c3cnc(C(N)=O)c(Nc4ccc(C5CCN(CC6CN(c7ccc8c(=O)n(C9CCC(=O)NC9=O)ccc8c7)C6)CC5)cc4)n3)C2)C1=O (stereo partly shown) [Compound 116]
% BTK Remaining [3, 6]: 39%

SMILES: CN1CCN([C@@H]2CCCN(c3cnc(C(N)=O)c(Nc4ccc(C5CCN(C[C@H]6CCCN(c7ccc8c(c7)C(=O)N(C7CCC(=O)NC7=O)C8=O)C6)CC5)cc4)n3)C2)C1=O (stereo partly shown) [Compound 50]
% BTK Remaining [3, 7]: 9%

SMILES: CN1CCN([C@@H]2CCCN(c3cnc(C(N)=O)c(Nc4ccc(N5CCC6CCN(c7cccc8c7C(=O)N(C7CCC(=O)NC7=O)C8=O)CC6C5)cc4)n3)C2)C1=O (stereo partly shown) [Compound 105]
% BTK Remaining [3, 5]: 85%

SMILES: CN1CCN([C@@H]2CCCN(c3cnc(C(N)=O)c(Nc4ccc(N5CCN(C[C@H]6CCCN(c7ccc8c(c7)C(=O)N(C7CCC(=O)NC7=O)C8=O)C6)CC5)cc4)n3)C2)C1=O (stereo partly shown) [Compound 48]
% BTK Remaining [3, 7]: 7%

SMILES: CN1CCN([C@@H]2CCCN(c3cnc(C(N)=O)c(Nc4ccc(N5CCN(CCC6CN(c7ccc8c(c7)C(=O)N(C7CCC(=O)NC7=O)C8=O)C6)CC5)cc4)n3)C2)C1=O (stereo partly shown) [Compound 43]
% BTK Remaining [3, 7]: 4%

SMILES: CN1CCN([C@@H]2CCCN(c3cnc(C(N)=O)c(Nc4ccc(C5CCN(CCC6CN(c7ccc8c(c7)C(=O)N(C7CCC(=O)NC7=O)C8=O)C6)CC5)cc4)n3)C2)C1=O (stereo partly shown) [Compound 45]
% BTK Remaining [3, 7]: 8%

SMILES: CN1CCN([C@@H]2CCCN(c3cnc(C(N)=O)c(Nc4ccc(N5CCN(CCC6CCN(c7ccc8c(c7)C(=O)N(C7CCC(=O)NC7=O)C8=O)CC6)CC5)cc4)n3)C2)C1=O (stereo partly shown) [Compound 40]
% BTK Remaining [3, 5]: 82%

SMILES: CN1CCN([C@@H]2CCCN(c3cnc(C(N)=O)c(Nc4ccc(C5CN(CC6CCN(c7ccc(-c8nn(C9CCC(=O)NC9=O)c(=O)n8C)cc7)CC6)C5)cc4)n3)C2)C1=O (stereo partly shown) [Compound 119]
% BTK Remaining [3, 4]: 77%

SMILES: CN1CCN([C@@H]2CCCN(c3cnc(C(N)=O)c(Nc4ccc(C5(C)CCN(c6ccc7c(c6)C(=O)N(C6CCC(=O)NC6=O)C7=O)CC5)cc4)n3)C2)C1=O (stereo partly shown) [Compound 58]
% BTK Remaining [3, 7]: 89%

SMILES: CN1CCN([C@@H]2CCCN(c3cnc(C(N)=O)c(Nc4ccc(N5CCN(C[C@H]6CCN(c7ccc8c(c7)C(=O)N(C7CCC(=O)NC7=O)C8=O)C6)CC5)nc4)n3)C2)C1=O (stereo partly shown) [Compound 113]
% BTK Remaining [3, 5]: 70% | % BTK Remaining ([3]; oral dose 30 mg/kg, 24 h, blood, analysis method not given): 59% | % BTK Remaining [3, 4]: 52%

SMILES: CN1CCN([C@@H]2CCCN(c3cnc(C(N)=O)c(Nc4ccc(C5CCN(C[C@@H]6CCN(c7ccc8c(c7)C(=O)N(C7CCC(=O)NC7=O)C8=O)C6)CC5)cc4)n3)C2)C1=O (stereo partly shown) [Compound 52]
% BTK Remaining [3, 7]: 2%

SMILES: CN1CCN([C@H]2CCCN(c3cnc(C(N)=O)c(Nc4ccc(N5CCC6(CCCN(Cc7ccc8c(c7)C(=O)N(C7CCC(=O)NC7=O)C8=O)C6)CC5)cc4)n3)C2)C1=O (stereo partly shown) [Compound 108]
% BTK Remaining [3, 5]: 116%

SMILES: CN1CCN([C@@H]2CCCN(c3cnc(C(N)=O)c(Nc4ccc(C5CCN(C[C@@H]6[C@H]7CN(c8ccc9c(c8)C(=O)N(C8CCC(=O)NC8=O)C9=O)C[C@@H]67)CC5)cc4)n3)C2)C1=O (stereo partly shown) [Compound 39]
% BTK Remaining [3, 5]: 79%

The next lines start with results.

% BTK Remaining [3, 4]: 46%
SMILES: CN1CCN([C@@H]2CCCN(c3cnc(C(N)=O)c(Nc4ccc(C5CCN(C[C@H]6CCN(c7ccc8c(c7)C(=O)N([C@@H]7CCC(=O)NC7=O)C8=O)C6)CC5)nc4)n3)C2)C1=O [Compound 207]
pEC50 [2]: 11.05 | EMAX (% viable cells) [2]: 54%

% BTK Remaining [3, 6]: 37%
SMILES: NC(=O)c1ncc(N2CCCC(N3CCCC3=O)C2)nc1Nc1ccc(C2CCN(C[C@@H]3CCN(c4ccc5c(c4)C(=O)N(C4CCC(=O)NC4=O)C5=O)C3)CC2)cc1 (stereo partly shown) [Compound 146]

% BTK Remaining [3, 6]: 43%
SMILES: CN1CCN([C@H]2CCCN(c3cnc(C(N)=O)c(Nc4ccc(C5CCN(C[C@@H]6CCN(c7ccc(-c8nn(C9CCC(=O)NC9=O)c(=O)n8C)cc7)C6)CC5)cc4)n3)C2)C1=O (stereo partly shown) [Compound 142]

% BTK Remaining [3, 6]: 13%
SMILES: Cn1c(=O)n([C@@H]2CCC(=O)NC2=O)c2ccc(N3CC[C@@H](CN4CCC(c5ccc(Nc6nc(N7CCCCC7)cnc6C(N)=O)cc5)CC4)C3)cc21 [Compound 197]

% BTK Remaining [3, 6]: 33%
SMILES: NC(=O)c1ncc(N2CCC[C@@H](N3CCOC3=O)C2)nc1Nc1ccc(C2CCN(CC3CCN(c4ccc5c(=O)n(C6CCC(=O)NC6=O)ccc5c4)CC3)CC2)cc1 (stereo partly shown) [Compound 153]

% BTK Remaining [3, 4]: 48%
SMILES: NC(=O)c1ncc(N2CCC3(COC3)C2)nc1Nc1ccc(C2CCN(C[C@H]3CCN(c4ccc5c(c4)C(=O)N(C4CCC(=O)NC4=O)C5=O)C3)CC2)cc1 (stereo partly shown) [Compound 176]

% BTK Remaining [3, 6]: 25%
SMILES: CN1CCN([C@@H]2CCCN(c3cnc(C(N)=O)c(Nc4ccc(C5CCN(C[C@H]6CCN(c7ccc8c(c7)n(C)c(=O)n8[C@@H]7CCC(=O)NC7=O)C6)CC5)cc4)n3)C2)C1=O [Compound 198]

% BTK Remaining [3, 6]: 100%
SMILES: Cn1cc(Nc2nc(N3CCC[C@@H](N4CCC5(CN(CC6CCN(c7ccc8c(=O)n(C9CCC(=O)NC9=O)ccc8c7)CC6)C5)C4=O)C3)cnc2C(N)=O)cn1 (stereo partly shown) [Compound 145]

% BTK Remaining ([3]; oral dose 3 mg/kg, 6 h, blood, flow cytometry): 100%
SMILES: CN1CCN([C@@H]2CCCN(c3cnc(C(N)=O)c(Nc4cc5n(n4)CCN(C[C@H]4CCN(c6ccc7c(c6)C(=O)N(C6CCC(=O)NC6=O)C7=O)C4)C5)c3)C2)C1=O (stereo partly shown) [Compound 214]

% BTK Remaining [3, 4]: 66%
SMILES: Cc1cc(Nc2nc(N3CCC[C@@H](N4CCC5(CCN(CC6CCN(c7ccc8c(c7)C(=O)N(C7CCC(=O)NC7=O)C8=O)CC6)CC5)C4=O)C3)cnc2C(N)=O)sn1 (stereo partly drawn) [compound 205, 5-[(3R)-3-[8-({1-[2-(2,6-dioxopiperidin-3-yl)-1,3-dioxoisoindol-5-yl]piperidin-4-yl}methyl)-1-oxo-2,8-diazaspiro[4.5]decan-2-yl]piperidin-1-yl]-3-[(3-methyl-1,2-thiazol-5-yl)amino]pyrazine-2-carboxamide]

% BTK Remaining [3, 6]: 20%
SMILES: CN1CCN([C@@H]2CCCN(c3cnc(C(N)=O)c(Nc4ccc(C5CCN(C[C@@H]6CCN(c7ccc8c(c7)n(C)c(=O)n8[C@@H]7CCC(=O)NC7=O)C6)CC5)cc4)n3)C2)C1=O [Compound 199]

% BTK Remaining [3, 6]: 37%
SMILES: Cn1c(-c2ccc(N3CCC(CN4CCC(c5ccc(Nc6nc(N7CCC[C@H](N8CCCC8=O)C7)cnc6C(N)=O)cc5)CC4)CC3)cc2)nn(C2CCC(=O)NC2=O)c1=O (stereo partly shown) [Compound 143]

% BTK Remaining [3, 4]: 87%
SMILES: CN1CCN([C@@H]2CCCN(c3cnc(C(N)=O)c(Nc4cnc(N5CCN(C[C@H]6CCN(c7ccc8c(c7)C(=O)N([C@@H]7CCC(=O)NC7=O)C8=O)C6)CC5)nc4)n3)C2)C1=O [Compound 204]

% BTK Remaining [3, 4]: 62%
SMILES: NC(=O)c1ncc(N2CCC(F)(F)C(CO)C2)nc1Nc1ccc(C2CCN(C[C@H]3CCN(c4ccc5c(c4)C(=O)N(C4CCC(=O)NC4=O)C5=O)C3)CC2)cc1 (stereo partly shown) [Compound 175]

% BTK Remaining [3, 4]: 84%
SMILES: NC(=O)c1ncc(N2CCC[C@@H](N3CCCC3=O)C2)nc1Nc1ccc(N2CC(C3CCN(c4ccc5c(c4)C(=O)N(C4CCC(=O)NC4=O)C5=O)CC3)C2)nc1 (stereo partly shown) [Compound 168]
